The assay deals with MV-4-11 cells. Description: Gene expression microarray analysis (Affymetrix PrimeView) and GSEA. It is filed as cell-based, human. The note with it: MV-4-11 cells, 48 hours. Also on record: RFU PODN (11730768_x_at) / Fold change /veh PODN (11730768_x_at) / RFU LINC00158 (11744669_a_at) / Fold change /veh LINC00158 (11744669_a_at) / RFU DUSP10 (11751237_a_at) / Fold change /veh DUSP10 (11751237_a_at) / RFU ID3 (11757404_x_at) / Fold change /veh ID3 (11757404_x_at) / RFU PLEKHG5 (11737974_s_at) / Fold change /veh PLEKHG5 (11737974_s_at) / RFU LRRC4B (11730491_at) / Fold change /veh LRRC4B (11730491_at) / RFU GIMAP4 (11747438_a_at) / Fold change /veh GIMAP4 (11747438_a_at) / RFU KRT8 (11758183_x_at) / Fold change /veh KRT8 (11758183_x_at) / RFU CNN1 (11734310_a_at) / Fold change /veh CNN1 (11734310_a_at) / RFU VPS37D (11726825_at) / Fold change /veh VPS37D (11726825_at) / RFU C10orf10 (11716522_x_at) / Fold change /veh C10orf10 (11716522_x_at) / RFU KIR2DL2 /// KIR2DL4 /// KIR2DL5A /// KIR2DL5B /// KIR2DS1 /// KIR2DS2 /// KIR2DS3 /// KIR2DS4 /// KIR3DL3 /// KIR3DL3 /// KIR3DS1 (11738374_at) / Fold change /veh KIR2DL2 /// KIR2DL4 /// KIR2DL5A /// KIR2DL5B /// KIR2DS1 /// KIR2DS2 /// KIR2DS3 /// KIR2DS4 /// KIR3DL3 /// KIR3DL3 /// KIR3DS1 (11738374_at) / RFU C1QL1 (11718748_at) / Fold change /veh C1QL1 (11718748_at) / RFU TMPRSS4 (11747572_a_at) / Fold change /veh TMPRSS4 (11747572_a_at) / RFU HAMP (11756126_x_at) / Fold change /veh HAMP (11756126_x_at) / RFU RNFT2 (11725882_a_at) / Fold change /veh RNFT2 (11725882_a_at) / RFU NR4A2 (11747474_a_at) / Fold change /veh NR4A2 (11747474_a_at) / RFU ABCC12 (11746883_a_at) / Fold change /veh ABCC12 (11746883_a_at) / RFU TMEM136 (11760407_x_at) / Fold change /veh TMEM136 (11760407_x_at) / RFU CLDN22 /// WWC2 (11732394_at) / Fold change /veh CLDN22 /// WWC2 (11732394_at) / RFU HLA-DPB1 (11760878_x_at) / Fold change /veh HLA-DPB1 (11760878_x_at) / RFU SPINT1 (11716480_a_at) / Fold change /veh SPINT1 (11716480_a_at) / RFU GAP43 (11754022_s_at) / Fold change /veh GAP43 (11754022_s_at) / RFU A4GNT (11735810_at) / Fold change /veh A4GNT (11735810_at) / RFU PRB3 (11715151_x_at) / Fold change /veh PRB3 (11715151_x_at) / RFU TUBB4B (11761932_at) / Fold change /veh TUBB4B (11761932_at) / RFU CAPN14 (11732068_a_at) / Fold change /veh CAPN14 (11732068_a_at) / RFU TMCC2 (11721928_a_at) / Fold change /veh TMCC2 (11721928_a_at) / RFU IRGQ (11745062_a_at) / Fold change /veh IRGQ (11745062_a_at) / RFU FAM174B (11720279_a_at) / Fold change /veh FAM174B (11720279_a_at) / RFU TMPRSS4 (11748680_a_at) / Fold change /veh TMPRSS4 (11748680_a_at) / RFU FAM212B (11763350_a_at) / Fold change /veh FAM212B (11763350_a_at) / RFU PLEKHG5 (11743358_a_at) / Fold change /veh PLEKHG5 (11743358_a_at) / RFU ZSCAN30 (11745921_a_at) / Fold change /veh ZSCAN30 (11745921_a_at) / RFU CMKLR1 (11741424_a_at) / Fold change /veh CMKLR1 (11741424_a_at) / RFU LOC101060620 /// MAPK8IP1 (11723275_at) / Fold change /veh LOC101060620 /// MAPK8IP1 (11723275_at) / RFU SPTSSB (11747773_x_at) / Fold change /veh SPTSSB (11747773_x_at) / RFU PRSS12 (11739890_at) / Fold change /veh PRSS12 (11739890_at) / RFU BIN1 (11741810_x_at) / Fold change /veh BIN1 (11741810_x_at) / RFU WNT11 (11732464_a_at) / Fold change /veh WNT11 (11732464_a_at) / RFU C10orf10 (11716521_a_at) / Fold change /veh C10orf10 (11716521_a_at) / RFU C5orf56 (11738089_at) / Fold change /veh C5orf56 (11738089_at) / RFU CYB561 (11721691_x_at) / Fold change /veh CYB561 (11721691_x_at) / RFU ANKRD19P (11752326_a_at) / Fold change /veh ANKRD19P (11752326_a_at) / RFU OR2T12 /// OR2T33 /// OR2T8 (11738714_s_at) / Fold change /veh OR2T12 /// OR2T33 /// OR2T8 (11738714_s_at) / RFU VCAN (11748164_a_at) / Fold change /veh VCAN (11748164_a_at) / RFU JSRP1 (11732532_at) / Fold change /veh JSRP1 (11732532_at) / RFU KRTAP10-11 (11738290_x_at) / Fold change /veh KRTAP10-11 (11738290_x_at) / RFU MYO3A (11730013_a_at) / Fold change /veh MYO3A (11730013_a_at) / RFU EBF3 (11725865_a_at) / Fold change /veh EBF3 (11725865_a_at) / RFU CAMK2N1 (11719241_x_at) / Fold change /veh CAMK2N1 (11719241_x_at) / RFU C5orf56 (11738088_a_at) / Fold change /veh C5orf56 (11738088_a_at) / RFU OLFML3 (11715873_a_at) / Fold change /veh OLFML3 (11715873_a_at) / RFU LOC100653217 /// NTM (11731650_a_at) / Fold change /veh LOC100653217 /// NTM (11731650_a_at) / RFU MAPK11 (11762145_a_at) / Fold change /veh MAPK11 (11762145_a_at) / RFU FIZ1 (11724087_x_at) / Fold change /veh FIZ1 (11724087_x_at) / RFU OASL (11726364_x_at) / Fold change /veh OASL (11726364_x_at) / RFU SOX15 (11748057_x_at) / Fold change /veh SOX15 (11748057_x_at) / RFU CD79A (11719716_a_at) / Fold change /veh CD79A (11719716_a_at) / RFU HIST1H1D (11736915_at) / Fold change /veh HIST1H1D (11736915_at) / RFU CASKIN2 (11723855_a_at) / Fold change /veh CASKIN2 (11723855_a_at) / RFU LOC730098 (11760151_x_at) / Fold change /veh LOC730098 (11760151_x_at) / RFU OR4N2 (11742367_at) / Fold change /veh OR4N2 (11742367_at) / RFU PRRT2 (11749266_a_at) / Fold change /veh PRRT2 (11749266_a_at) / RFU SNX32 (11753110_a_at) / Fold change /veh SNX32 (11753110_a_at) / RFU CDHR5 (11726645_a_at) / Fold change /veh CDHR5 (11726645_a_at) / RFU RCAN1 (11760418_a_at) / Fold change /veh RCAN1 (11760418_a_at) / RFU FAM167A (11723789_a_at) / Fold change /veh FAM167A (11723789_a_at) / RFU FAM26E (11764081_at) / Fold change /veh FAM26E (11764081_at) / RFU ISYNA1 (11749810_s_at) / Fold change /veh ISYNA1 (11749810_s_at) / RFU ACY1 (11761880_at) / Fold change /veh ACY1 (11761880_at) / RFU 11764098_at / Fold change /veh 11764098_at / RFU SAMD14 (11745864_x_at) / Fold change /veh SAMD14 (11745864_x_at) / RFU NPB (11741838_a_at) / Fold change /veh NPB (11741838_a_at) / RFU TMPRSS6 (11731388_a_at) / Fold change /veh TMPRSS6 (11731388_a_at) / RFU KRTAP10-2 (11738614_at) / Fold change /veh KRTAP10-2 (11738614_at) / RFU ARHGAP8 /// PRR5-ARHGAP8 (11727945_x_at) / Fold change /veh ARHGAP8 /// PRR5-ARHGAP8 (11727945_x_at) / RFU KRTAP5-7 /// NADSYN1 (11734609_at) / Fold change /veh KRTAP5-7 /// NADSYN1 (11734609_at) / RFU RASL12 (11751679_a_at) / Fold change /veh RASL12 (11751679_a_at) / RFU CDKN2B (11736163_a_at) / Fold change /veh CDKN2B (11736163_a_at) / RFU PRF1 (11729649_at) / Fold change /veh PRF1 (11729649_at) / RFU, ZNF638 /// ZNF638-IT1 / Fold change vs veh, ZNF638 /// ZNF638-IT1 / RFU, PANK3 / Fold change vs veh, PANK3 / RFU, SH3YL1 / Fold change vs veh, SH3YL1 / RFU, ZEB2 / Fold change vs veh, ZEB2 / RFU, NRIP1 / Fold change vs veh, NRIP1 / RFU, PTTG1IP / Fold change vs veh, PTTG1IP / RFU, CAPN2 / Fold change vs veh, CAPN2 / RFU, MED14 / Fold change vs veh, MED14 / RFU, SNORA58 / Fold change vs veh, SNORA58 / RFU, C1orf63 / Fold change vs veh, C1orf63 / RFU, LRRFIP1 / Fold change vs veh, LRRFIP1 / RFU, NDUFAF7 / Fold change vs veh, NDUFAF7 / RFU, SLC12A2 / Fold change vs veh, SLC12A2 / RFU, IBTK / Fold change vs veh, IBTK / RFU, ESF1 / Fold change vs veh, ESF1 / Fold change vs veh, TMEM50B / RFU, TAOK1 / Fold change vs veh, TAOK1 / RFU, ACBD3 / Fold change vs veh, ACBD3 / RFU, TMA16 / Fold change vs veh, TMA16 / RFU, RWDD3 / Fold change vs veh, RWDD3 / RFU, BCAT1 / Fold change vs veh, BCAT1 / RFU, EDEM3 / Fold change vs veh, EDEM3 / RFU, TMEM33 / Fold change vs veh, TMEM33 / RFU, WDR75 / Fold change vs veh, WDR75 / RFU, AHCTF1 / Fold change vs veh, AHCTF1 / RFU, TFRC / Fold change vs veh, TFRC / RFU, ZDHHC17 / Fold change vs veh, ZDHHC17 / RFU, NOM1 / Fold change vs veh, NOM1 / RFU, ARL8B / Fold change vs veh, ARL8B / RFU, ZBTB11 / Fold change vs veh, ZBTB11 / RFU, TAMM41 / Fold change vs veh, TAMM41 / RFU, KIAA1704 /// LOC100996395 / Fold change vs veh, KIAA1704 /// LOC100996395 / RFU, ING1 / Fold change vs veh, ING1 / RFU, TRMT61B / Fold change vs veh, TRMT61B / RFU, FUBP3 / Fold change vs veh, FUBP3 / RFU, TP53 / Fold change vs veh, TP53 / RFU, TNKS2 / Fold change vs veh, TNKS2 / RFU, ZFP14 / Fold change vs veh, ZFP14 / RFU, ACTR2 / Fold change vs veh, ACTR2 / RFU, PPP3R1 / Fold change vs veh, PPP3R1 / RFU, PIK3R1 / Fold change vs veh, PIK3R1 / RFU, HNRNPA1 / Fold change vs veh, HNRNPA1 / RFU, RNF170 / Fold change vs veh, RNF170 / RFU, ZNF28 / Fold change vs veh, ZNF28 / RFU, RNGTT / Fold change vs veh, RNGTT / RFU, OGT / Fold change vs veh, OGT / RFU, BRD1 / Fold change vs veh, BRD1 / RFU, MARS / Fold change vs veh, MARS / RFU, ZNF655 / Fold change vs veh, ZNF655 / RFU, FAHD1 / Fold change vs veh, FAHD1 / RFU, BDP1 / Fold change vs veh, BDP1 / RFU, LRRCC1 / Fold change vs veh, LRRCC1 / RFU, ARID1A / Fold change vs veh, ARID1A / RFU, ZNF146 / Fold change vs veh, ZNF146 / RFU, ZNF330 / Fold change vs veh, ZNF330 / RFU, GPN3 / Fold change vs veh, GPN3 / RFU, C9orf123 / Fold change vs veh, C9orf123 / RFU, N4BP2L2 / Fold change vs veh, N4BP2L2 / RFU, ARFIP1 / Fold change vs veh, ARFIP1 / RFU, FAM179B / Fold change vs veh, FAM179B / RFU, BCL10 / Fold change vs veh, BCL10 / RFU, UHRF1BP1L / Fold change vs veh, UHRF1BP1L / RFU, BET1 / Fold change vs veh, BET1 / RFU, CNOT2 / Fold change vs veh, CNOT2 / RFU, ZNF268 / Fold change vs veh, ZNF268 / Fold change vs veh, ZNF507 / RFU, DGCR2 / Fold change vs veh, DGCR2 / RFU, WDSUB1 / Fold change vs veh, WDSUB1 / Fold change vs veh, HSP90B1 /// MIR3652 / RFU, ADSS / Fold change vs veh, ADSS / RFU, GK / Fold change vs veh, GK / RFU, ZNF148 / Fold change vs veh, ZNF148 / RFU, TAF9 / Fold change vs veh, TAF9 / RFU, SLC1A5 / Fold change vs veh, SLC1A5 / RFU, SLMO2 / Fold change vs veh, SLMO2 / RFU, ABCC4 / Fold change vs veh, ABCC4 / RFU, LOC101060439 /// RAP1B / Fold change vs veh, LOC101060439 /// RAP1B / RFU, RFX7 / Fold change vs veh, RFX7 / RFU, GTPBP10 / Fold change vs veh, GTPBP10 / RFU, CNEP1R1 / Fold change vs veh, CNEP1R1 / RFU, BIVM-ERCC5 /// ERCC5 / Fold change vs veh, BIVM-ERCC5 /// ERCC5 / RFU, ILF3 / Fold change vs veh, ILF3 / RFU 11762660_at / Fold change /veh 11762660_at / RFU VCAN (11757783_s_at) / Fold change /veh VCAN (11757783_s_at) / RFU DDX43 (11728927_at) / Fold change /veh DDX43 (11728927_at) / RFU KRT8 (11758188_x_at) / Fold change /veh KRT8 (11758188_x_at) / RFU NKD1 (11759106_at) / Fold change /veh NKD1 (11759106_at) / RFU SRD5A1 (11742802_a_at) / Fold change /veh SRD5A1 (11742802_a_at) / RFU TPSAB1 /// TPSB2 (11721975_s_at) / Fold change /veh TPSAB1 /// TPSB2 (11721975_s_at) / RFU GSTM3 (11746129_a_at) / Fold change /veh GSTM3 (11746129_a_at) / RFU IL23R (11737362_x_at) / Fold change /veh IL23R (11737362_x_at) / RFU TMEM51 (11727254_a_at) / Fold change /veh TMEM51 (11727254_a_at) / RFU PIWIL2 (11732686_x_at) / Fold change /veh PIWIL2 (11732686_x_at) / RFU ORM1 (11744905_x_at) / Fold change /veh ORM1 (11744905_x_at) / RFU CCDC152 (11743942_at) / Fold change /veh CCDC152 (11743942_at) / RFU ECM1 (11717891_a_at) / Fold change /veh ECM1 (11717891_a_at) / RFU IL23R (11748794_a_at) / Fold change /veh IL23R (11748794_a_at) / RFU TNFAIP8L3 (11732012_x_at) / Fold change /veh TNFAIP8L3 (11732012_x_at) / RFU MBOAT4 (11741988_at) / Fold change /veh MBOAT4 (11741988_at) / RFU 11764193_at / Fold change /veh 11764193_at / RFU TMEM53 (11763286_at) / Fold change /veh TMEM53 (11763286_at) / RFU MAGEB2 (11727129_at) / Fold change /veh MAGEB2 (11727129_at) / RFU TMEM200A (11744735_a_at) / Fold change /veh TMEM200A (11744735_a_at) / RFU CCDC152 (11751479_a_at) / Fold change /veh CCDC152 (11751479_a_at) / RFU FAM211A (11726209_a_at) / Fold change /veh FAM211A (11726209_a_at) / RFU RGS16 (11746705_a_at) / Fold change /veh RGS16 (11746705_a_at) / RFU VCAN (11755009_s_at) / Fold change /veh VCAN (11755009_s_at) / RFU RHOB (11743442_s_at) / Fold change /veh RHOB (11743442_s_at) / RFU RGS16 (11720943_a_at) / Fold change /veh RGS16 (11720943_a_at) / RFU RGS16 (11720944_at) / Fold change /veh RGS16 (11720944_at) / RFU, VPS4B / Fold change vs veh, VPS4B / RFU, CREB1 / Fold change vs veh, CREB1 / RFU, DNAJC13 / Fold change vs veh, DNAJC13 / RFU, GNAQ / Fold change vs veh, GNAQ / RFU, CDK5R1 / Fold change vs veh, CDK5R1 / RFU, ZRANB3 / Fold change vs veh, ZRANB3 / RFU, CUL4A / Fold change vs veh, CUL4A / RFU, CCNY / Fold change vs veh, CCNY / RFU, UFL1 / Fold change vs veh, UFL1 / RFU, COG3 / Fold change vs veh, COG3 / RFU, DIAPH2 / Fold change vs veh, DIAPH2 / RFU, SKA2 / Fold change vs veh, SKA2 / RFU, AFF3 / Fold change vs veh, AFF3 / RFU, LMF1 / Fold change vs veh, LMF1 / RFU, IPO11 / Fold change vs veh, IPO11 / RFU, DFFB / Fold change vs veh, DFFB / RFU, FOXP1 / Fold change vs veh, FOXP1 / RFU, CARD8 / Fold change vs veh, CARD8 / RFU, STRN3 / Fold change vs veh, STRN3 / RFU, ADK / Fold change vs veh, ADK / RFU, RASSF2 / Fold change vs veh, RASSF2 / RFU, WIPF1 / Fold change vs veh, WIPF1 / RFU, LARP1B / Fold change vs veh, LARP1B / RFU, RASA1 / Fold change vs veh, RASA1 / RFU, RB1 / Fold change vs veh, RB1 / RFU, PPFIA1 / Fold change vs veh, PPFIA1 / RFU, MAT2A / Fold change vs veh, MAT2A / RFU, CCT5 / Fold change vs veh, CCT5 / RFU, WDR92 / Fold change vs veh, WDR92 / RFU, CUX1 / Fold change vs veh, CUX1 / RFU, TTC7A / Fold change vs veh, TTC7A / RFU, TMEM135 / Fold change vs veh, TMEM135 / RFU, DEPTOR / Fold change vs veh, DEPTOR / RFU, CPM / Fold change vs veh, CPM / RFU, DNAJB6 / Fold change vs veh, DNAJB6 / RFU, CACNA2D3 / Fold change vs veh, CACNA2D3 / RFU, DTX4 / Fold change vs veh, DTX4 / RFU, TFCP2 / Fold change vs veh, TFCP2 / RFU, GMCL1 /// GMCL1P1 / Fold change vs veh, GMCL1 /// GMCL1P1 / RFU, AEBP2 / Fold change vs veh, AEBP2 / RFU, SNHG1 /// SNORD22 /// SNORD25 /// SNORD26 /// SNORD27 /// SNORD28 /// SNORD29 /// SNORD31 / Fold change vs veh, SNHG1 /// SNORD22 /// SNORD25 /// SNORD26 /// SNORD27 /// SNORD28 /// SNORD29 /// SNORD31 / Fold change (Aza/veh), C12orf56 (ProbeSet 11735607_a_at) / Fold change (ACY-1035/veh), C12orf56 (ProbeSet 11735607_a_at) / Fold change (Aza/veh), FGFR1OP (ProbeSet 11751329_s_at) / Fold change (ACY-1035/veh), FGFR1OP (ProbeSet 11751329_s_at) / Fold change (Aza/veh), VPS36 (ProbeSet 11739960_a_at) / Fold change (ACY-1035/veh), VPS36 (ProbeSet 11739960_a_at) / RFU SYPL1 (11715823_x_at) / Fold change /veh SYPL1 (11715823_x_at) / RFU IGFBP7 (11715501_s_at) / Fold change /veh IGFBP7 (11715501_s_at) / RFU REEP3 (11722064_at) / Fold change /veh REEP3 (11722064_at) / RFU IGLL1 (11728026_x_at) / Fold change /veh IGLL1 (11728026_x_at): dose or concentration left out as unconfirmed.

For `Nc1ncn([C@@H]2O[C@H](CO)[C@@H](O)[C@H]2O)c(=O)n1` [azacitidine], the “RFU IL23R (11737362_x_at)” value stood at 11.80 RFU.
